According to US11725011B2, “Bicyclic urea kinase inhibitors and uses thereof” (The Broad Institute, Inc., priority 2016, dated 2023):

Legend:
Assay in all cases: KINOMEscan
Assay type in all cases: binding
Conditions in all cases: 1 uM
ANKK1 = ANKK1 (Homo sapiens (Human), UniProt Q8NFD2)
CAMK1 = CAMK1 (Homo sapiens (Human), UniProt Q14012)
CASK = CASK (Homo sapiens (Human), UniProt O14936)
CDK2 = CDK2 (Homo sapiens (Human), UniProt P24941)
CSNK1A1L = CSNK1A1L (Homo sapiens (Human), UniProt Q8N752)
DYRK1A = DYRK1A (Homo sapiens (Human), UniProt Q13627)
EGFR (G719S) = EGFR (G719S) (Homo sapiens (Human), UniProt P00533, G719S)
[1] = biological target: EGFR (L747-T751del, Sins) (Homo sapiens (Human), UniProt P00533, DEL747-751/INS746S)
EIF2AK1 = EIF2AK1 (Homo sapiens (Human), UniProt Q9BQI3)
EPHA2 = EPHA2 (Homo sapiens (Human), UniProt P29317)
FLT3 = FLT3 (Homo sapiens (Human), UniProt P36888)
HPK1 = HPK1 (Homo sapiens (Human), UniProt Q92918)
IKK-beta = IKK-beta (Homo sapiens (Human), UniProt O14920)
INSRR = INSRR (Homo sapiens (Human), UniProt P14616)
IRAK4 = IRAK4 (Homo sapiens (Human), UniProt Q9NWZ3)
[2] = biological target: JAK1 (JH1domain-catalytic) (Homo sapiens (Human), UniProt P23458)
JNK3 = JNK3 (Homo sapiens (Human), UniProt P53779)
KIT (L576P) = KIT (L576P) (Homo sapiens (Human), UniProt P10721, L576P)
MAPKAPK2 = MAPKAPK2 (Homo sapiens (Human), UniProt P49137)
MELK = MELK (Homo sapiens (Human), UniProt Q14680)
MET (M1250T) = MET (M1250T) (Homo sapiens (Human), UniProt P08581, M1250T)
MKNK2 = MKNK2 (Homo sapiens (Human), UniProt Q9HBH9)
MST1R = MST1R (Homo sapiens (Human), UniProt Q04912)
MYO3A = MYO3A (Homo sapiens (Human), UniProt Q8NEV4)
p38-alpha = p38-alpha (Homo sapiens (Human), UniProt Q16539)
PCTK1 = PCTK1 (Homo sapiens (Human), UniProt Q00536)
PDGFRA = PDGFRA (Homo sapiens (Human), UniProt P16234)
PIK3CA (H1047Y) = PIK3CA (H1047Y) (Homo sapiens (Human), UniProt P42336, H1047Y)
PIP5K1A = PIP5K1A (Homo sapiens (Human), UniProt Q99755)
PKAC-beta = PKAC-beta (Homo sapiens (Human), UniProt P22694)
PKMYT1 = PKMYT1 (Homo sapiens (Human), UniProt Q99640)
PRKR = PRKR (Homo sapiens (Human), UniProt P19525)
PRP4 = PRP4 (Homo sapiens (Human), UniProt Q13523)
RIPK4 = RIPK4 (Homo sapiens (Human), UniProt P57078)
SNRK = SNRK (Homo sapiens (Human), UniProt Q9NRH2)
SRPK1 = SRPK1 (Homo sapiens (Human), UniProt Q96SB4)
STK16 = STK16 (Homo sapiens (Human), UniProt O75716)
TRPM6 = TRPM6 (Homo sapiens (Human), UniProt Q9BX84)
WEE2 = WEE2 (Homo sapiens (Human), UniProt P0C1S8)
WNK3 = WNK3 (Homo sapiens (Human), UniProt Q9BYP7)

Sequence of PIP5K1A (Q99755 whole entry): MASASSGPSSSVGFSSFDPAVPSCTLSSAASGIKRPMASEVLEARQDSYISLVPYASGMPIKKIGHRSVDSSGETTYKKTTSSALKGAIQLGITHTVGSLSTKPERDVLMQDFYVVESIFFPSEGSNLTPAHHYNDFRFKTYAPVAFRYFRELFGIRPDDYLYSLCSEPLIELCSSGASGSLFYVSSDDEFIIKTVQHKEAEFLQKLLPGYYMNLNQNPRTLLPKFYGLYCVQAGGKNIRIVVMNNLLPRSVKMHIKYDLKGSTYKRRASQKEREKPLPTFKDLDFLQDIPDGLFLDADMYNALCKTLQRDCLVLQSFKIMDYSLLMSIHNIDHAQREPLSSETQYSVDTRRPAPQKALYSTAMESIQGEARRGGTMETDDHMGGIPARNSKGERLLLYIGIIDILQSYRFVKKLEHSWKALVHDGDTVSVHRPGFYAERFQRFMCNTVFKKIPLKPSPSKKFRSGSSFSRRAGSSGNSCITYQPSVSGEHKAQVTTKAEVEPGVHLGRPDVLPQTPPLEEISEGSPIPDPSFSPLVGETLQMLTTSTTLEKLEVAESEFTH
Sequence of CSNK1A1L (Q8N752 whole entry): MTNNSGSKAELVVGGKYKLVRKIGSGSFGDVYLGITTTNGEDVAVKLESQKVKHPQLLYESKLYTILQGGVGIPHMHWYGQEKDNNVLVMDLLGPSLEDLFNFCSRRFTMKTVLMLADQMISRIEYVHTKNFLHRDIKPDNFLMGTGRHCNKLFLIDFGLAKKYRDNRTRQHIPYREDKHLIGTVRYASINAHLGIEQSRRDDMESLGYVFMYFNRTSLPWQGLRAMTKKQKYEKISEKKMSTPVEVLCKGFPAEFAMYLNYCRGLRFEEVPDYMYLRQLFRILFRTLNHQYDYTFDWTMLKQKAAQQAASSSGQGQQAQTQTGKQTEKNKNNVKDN
Sequence of MYO3A (Q8NEV4 whole entry): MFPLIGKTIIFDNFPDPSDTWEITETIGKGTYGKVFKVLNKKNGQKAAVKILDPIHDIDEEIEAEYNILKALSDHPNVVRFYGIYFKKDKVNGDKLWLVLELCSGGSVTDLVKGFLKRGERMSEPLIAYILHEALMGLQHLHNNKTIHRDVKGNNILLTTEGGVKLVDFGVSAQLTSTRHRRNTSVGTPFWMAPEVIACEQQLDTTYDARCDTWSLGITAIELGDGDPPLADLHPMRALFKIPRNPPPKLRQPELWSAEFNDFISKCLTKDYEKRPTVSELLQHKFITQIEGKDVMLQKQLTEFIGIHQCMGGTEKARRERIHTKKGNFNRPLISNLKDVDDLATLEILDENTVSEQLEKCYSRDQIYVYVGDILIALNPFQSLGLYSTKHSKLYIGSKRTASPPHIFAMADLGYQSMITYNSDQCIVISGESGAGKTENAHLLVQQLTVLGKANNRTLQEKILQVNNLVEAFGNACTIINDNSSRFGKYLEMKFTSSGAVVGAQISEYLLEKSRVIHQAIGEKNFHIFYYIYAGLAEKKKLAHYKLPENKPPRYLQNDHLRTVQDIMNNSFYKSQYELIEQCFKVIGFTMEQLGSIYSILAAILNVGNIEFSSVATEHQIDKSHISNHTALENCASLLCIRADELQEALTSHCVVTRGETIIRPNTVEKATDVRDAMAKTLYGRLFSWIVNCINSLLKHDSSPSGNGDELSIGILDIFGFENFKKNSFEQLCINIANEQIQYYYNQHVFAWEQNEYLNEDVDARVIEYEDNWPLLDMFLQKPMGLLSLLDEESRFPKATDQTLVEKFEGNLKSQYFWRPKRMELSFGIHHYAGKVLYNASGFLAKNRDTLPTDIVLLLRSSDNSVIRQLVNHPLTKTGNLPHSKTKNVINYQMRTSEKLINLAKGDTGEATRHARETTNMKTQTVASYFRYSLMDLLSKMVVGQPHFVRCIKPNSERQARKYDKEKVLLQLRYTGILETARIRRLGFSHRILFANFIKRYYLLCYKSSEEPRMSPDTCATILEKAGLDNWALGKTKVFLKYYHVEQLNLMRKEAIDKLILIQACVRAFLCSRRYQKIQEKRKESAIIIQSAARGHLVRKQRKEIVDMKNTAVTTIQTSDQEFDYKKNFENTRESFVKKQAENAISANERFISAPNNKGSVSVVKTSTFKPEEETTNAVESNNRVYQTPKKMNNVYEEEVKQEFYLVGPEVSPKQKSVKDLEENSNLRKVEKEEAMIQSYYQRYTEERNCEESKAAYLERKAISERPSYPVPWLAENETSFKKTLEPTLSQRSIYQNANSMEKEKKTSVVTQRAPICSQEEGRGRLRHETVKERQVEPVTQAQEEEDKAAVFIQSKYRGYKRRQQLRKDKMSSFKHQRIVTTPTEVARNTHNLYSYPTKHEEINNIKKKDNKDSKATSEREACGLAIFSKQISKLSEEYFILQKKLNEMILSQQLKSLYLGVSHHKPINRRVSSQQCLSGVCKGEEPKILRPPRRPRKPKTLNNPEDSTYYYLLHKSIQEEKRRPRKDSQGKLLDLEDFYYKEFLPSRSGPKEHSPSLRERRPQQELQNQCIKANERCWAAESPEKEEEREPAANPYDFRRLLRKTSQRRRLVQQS
Sequence of IRAK4 (Q9NWZ3 whole entry): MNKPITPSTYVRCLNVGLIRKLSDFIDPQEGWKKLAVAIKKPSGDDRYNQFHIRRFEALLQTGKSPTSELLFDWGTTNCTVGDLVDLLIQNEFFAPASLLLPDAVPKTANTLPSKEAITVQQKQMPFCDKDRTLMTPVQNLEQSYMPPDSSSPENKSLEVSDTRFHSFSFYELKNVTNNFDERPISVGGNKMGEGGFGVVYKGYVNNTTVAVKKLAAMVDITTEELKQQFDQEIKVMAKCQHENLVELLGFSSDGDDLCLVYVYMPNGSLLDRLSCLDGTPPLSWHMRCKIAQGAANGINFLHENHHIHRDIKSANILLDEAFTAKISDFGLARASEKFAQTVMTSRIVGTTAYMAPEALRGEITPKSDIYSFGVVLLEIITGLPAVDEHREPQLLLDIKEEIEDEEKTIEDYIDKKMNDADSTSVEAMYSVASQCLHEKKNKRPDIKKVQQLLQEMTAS
Sequence of PCTK1 (Q00536 whole entry): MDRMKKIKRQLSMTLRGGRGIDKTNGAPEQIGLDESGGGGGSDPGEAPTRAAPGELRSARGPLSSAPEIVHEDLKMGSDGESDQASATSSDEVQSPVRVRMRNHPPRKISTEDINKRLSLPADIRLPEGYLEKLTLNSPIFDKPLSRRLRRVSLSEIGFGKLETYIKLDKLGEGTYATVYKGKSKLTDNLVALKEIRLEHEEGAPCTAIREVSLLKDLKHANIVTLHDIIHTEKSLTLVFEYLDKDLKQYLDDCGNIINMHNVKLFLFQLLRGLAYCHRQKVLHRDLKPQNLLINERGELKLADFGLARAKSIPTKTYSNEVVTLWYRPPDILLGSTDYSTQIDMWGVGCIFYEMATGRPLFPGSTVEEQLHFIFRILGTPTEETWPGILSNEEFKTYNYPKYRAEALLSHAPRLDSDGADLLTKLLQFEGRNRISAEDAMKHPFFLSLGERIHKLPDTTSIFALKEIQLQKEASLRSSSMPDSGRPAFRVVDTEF
Sequence of PDGFRA (P16234 24-1089): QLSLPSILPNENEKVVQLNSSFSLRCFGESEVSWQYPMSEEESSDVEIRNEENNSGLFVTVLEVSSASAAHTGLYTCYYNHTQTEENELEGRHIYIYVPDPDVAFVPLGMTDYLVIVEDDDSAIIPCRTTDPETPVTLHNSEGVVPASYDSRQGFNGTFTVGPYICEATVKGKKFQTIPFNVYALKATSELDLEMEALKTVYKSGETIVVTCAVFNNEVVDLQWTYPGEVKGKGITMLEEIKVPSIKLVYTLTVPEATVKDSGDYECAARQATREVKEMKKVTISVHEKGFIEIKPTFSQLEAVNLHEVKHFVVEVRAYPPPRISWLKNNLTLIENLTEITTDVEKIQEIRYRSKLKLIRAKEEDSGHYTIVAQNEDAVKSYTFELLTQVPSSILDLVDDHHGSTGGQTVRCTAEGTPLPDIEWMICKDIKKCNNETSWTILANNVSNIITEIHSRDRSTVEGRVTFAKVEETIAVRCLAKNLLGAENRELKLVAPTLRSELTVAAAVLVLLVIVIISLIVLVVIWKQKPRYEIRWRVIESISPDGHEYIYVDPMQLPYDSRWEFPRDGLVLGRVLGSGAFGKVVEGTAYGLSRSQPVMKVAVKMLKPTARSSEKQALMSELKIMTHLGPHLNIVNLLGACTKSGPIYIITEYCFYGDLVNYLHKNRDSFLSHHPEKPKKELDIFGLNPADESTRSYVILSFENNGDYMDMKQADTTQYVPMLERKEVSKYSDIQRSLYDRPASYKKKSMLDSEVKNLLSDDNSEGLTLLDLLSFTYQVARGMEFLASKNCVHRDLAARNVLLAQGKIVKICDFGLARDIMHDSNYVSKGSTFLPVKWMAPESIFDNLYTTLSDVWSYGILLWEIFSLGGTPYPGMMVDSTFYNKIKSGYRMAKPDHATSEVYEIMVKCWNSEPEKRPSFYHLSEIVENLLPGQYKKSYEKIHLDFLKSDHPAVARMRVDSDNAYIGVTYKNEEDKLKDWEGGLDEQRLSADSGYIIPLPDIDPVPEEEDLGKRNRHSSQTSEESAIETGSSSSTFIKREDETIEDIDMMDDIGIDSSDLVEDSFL
Sequence of p38-alpha (Q16539 whole entry): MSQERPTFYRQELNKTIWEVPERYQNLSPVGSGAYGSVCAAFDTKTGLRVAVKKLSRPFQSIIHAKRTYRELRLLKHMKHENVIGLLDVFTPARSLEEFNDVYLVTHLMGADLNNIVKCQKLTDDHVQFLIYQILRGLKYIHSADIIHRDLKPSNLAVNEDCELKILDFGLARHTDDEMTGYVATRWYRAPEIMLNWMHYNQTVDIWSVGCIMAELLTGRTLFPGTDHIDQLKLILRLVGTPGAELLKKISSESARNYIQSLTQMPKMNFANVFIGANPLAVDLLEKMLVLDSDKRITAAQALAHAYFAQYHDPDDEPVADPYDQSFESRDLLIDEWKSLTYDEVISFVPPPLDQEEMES

COc1ccc(N2C(=O)N(c3c(C)cccc3C)Cc3cnc(Nc4ccc(N5CCN(C)CC5)cc4)nc32)c(OC)c1 [HG-11-136-01]
KINOMEscan ANKK1 (ANKK1): 68
KINOMEscan CAMK1 (CAMK1): 82
KINOMEscan CASK (CASK): 54
KINOMEscan CDK2 (CDK2): 97
KINOMEscan CSNK1A1L (CSNK1A1L): 97
KINOMEscan DYRK1A (DYRK1A): 30
KINOMEscan EGFR (G719S) (EGFR (G719S)): 0.2
KINOMEscan EGFR (L747-T751del, Sins) [1]: 0.3
KINOMEscan EIF2AK1 (EIF2AK1): 93
KINOMEscan EPHA2 (EPHA2): 0.6
KINOMEscan FLT3 (FLT3): 34
KINOMEscan HPK1 (HPK1): 0.95
KINOMEscan IKK-beta (IKK-beta): 80
KINOMEscan INSRR (INSRR): 100
KINOMEscan IRAK4 (IRAK4): 49
KINOMEscan JAK1 (JH1domain-catalytic) [2]: 57
KINOMEscan JNK3 (JNK3): 32
KINOMEscan KIT (L576P) (KIT (L576P)): 0
KINOMEscan MAPKAPK2 (MAPKAPK2): 100
KINOMEscan MELK (MELK): 36
KINOMEscan MET (M1250T) (MET (M1250T)): 46
KINOMEscan MKNK2 (MKNK2): 99
KINOMEscan MST1R (MST1R): 100
KINOMEscan MYO3A (MYO3A): 40
KINOMEscan p38-alpha (p38-alpha): 1
KINOMEscan PCTK1 (PCTK1): 73
KINOMEscan PDGFRA (PDGFRA): 0.5
KINOMEscan PIK3CA (H1047Y) (PIK3CA (H1047Y)): 63
KINOMEscan PIP5K1A (PIP5K1A): 14
KINOMEscan PKAC-beta (PKAC-beta): 66
KINOMEscan PKMYT1 (PKMYT1): 42
KINOMEscan PRKR (PRKR): 73
KINOMEscan PRP4 (PRP4): 100
KINOMEscan RIPK4 (RIPK4): 55
KINOMEscan SNRK (SNRK): 91
KINOMEscan SRPK1 (SRPK1): 16
KINOMEscan STK16 (STK16): 5.6
KINOMEscan TRPM6 (TRPM6): 69
KINOMEscan WEE2 (WEE2): 82
KINOMEscan WNK3 (WNK3): 50
